For assay [1], the system named is sexual behaviour of male rats. Kind of assay: Sexual behaviour of castrated male rats, topical application of several materials (Table III). In kind it is in vivo, rat. Also noted: key to Ejaculations (E): E = Ejaculations. As to conditions: for Ejaculations (E) / No. Ob. / Int. Latency: individual rats; for No. Ob. / Int. Latency: castrated 14 days earlier, testosterone 4 μg/100 g BW daily; for Int. Latency: in s. From the text:
(§1) The animal model -- All tested rats (Wistar derived from the departmental colony, Hormone Research Department, at the Weizmann Institute of Science), are sexually experienced male rats around 3 months of age (body weight ~250 g). At this age, the rats are castrated by removal of the testes and injected daily with testosterone for at least 14 consecutive days.
All rats (males and females) that take part in the experiment are kept in a 12-hour light 12-hour dark cycle. Prior to testing, each male is put in a separate cage for at least 1 hour. A sexually receptive female is introduced to each male. Females were tested for their receptivity by vaginal smearings. The latencies of mounts and intromissions are recorded.
6 rats, 120 days old, sexually experienced, were tested. The rats were castrated 14 days earlier and were injected with 4 μg/100 g BW of testosterone daily. […] All 6 materials were tested by topical application.

For the next assay, the system named is penile erection. As to conditions: injection; cited from earlier work.
For assay [2], the system named is sexual behaviour of male rats. Kind of assay: Sexual behaviour of castrated, testosterone-treated male rats after intravenous injection (Table I). The class given is in vivo, rat. Also noted: key to Ejaculations (E): E = Ejaculations.
Text: as §1
(§2) All rats (males and females) that take part in the experiment are kept in a 12-hour light 12-hour dark cycle. Prior to testing, each male is put in a separate cage for at least 1 hour. A sexually receptive female is introduced to each male. Females were tested for their receptivity by vaginal smearings. The latencies of mounts and intromissions are recorded. […] Using castrated animals we achieved decreased sexual activity which is expressed by longer intervals between intromissions and less intromissions during the 15 min observation periods.
Initially, we tested a few VIP analogs by injection (intravenously 5-10 μg/animal). As a control we injected saline at identical volumes (5-10 μl).
Rats were castrated and injected daily for 15 consecutive days with testosterone at 4 μg/100 g body weight (BW). Tests were performed with stearyl-VIP or VIP at 10 μg/animal.

Assay [3] relates to sexual behaviour of male rats. Kind of assay: Sexual behaviour of castrated male rats after topical application in DMSO (Table II). In kind it is in vivo, rat. Also noted: key to Ejaculations (E): E = Ejaculations. As to conditions: for Effect on sexual activity (words): compared with DMSO control.
Text: as §1, §2
As we have obtained positive results with stearyl-VIP by injection we have now developed a topical application method. This was achieved by mixing 20 μl of 1 μg/ml VIP-stearyl with 10 μl dimethyl sulfoxide (DMSO) and direct topical application on the sex organ.
Rats were castrated and injected daily for 16 consecutive days with testosterone at 2 μg/100 g BW. Testing was performed by topical application of stearyl-VIP-20 μg/20 μl mixed with 10 μl DMSO and compared to topical application of 30 μl DMSO.

Assay [4] relates to sexual behaviour of male rats. Kind of assay: Sexual behaviour of male rats after topical application of ointment (Table IV). The class given is in vivo. As to conditions: ointment applied onto the rat's penis.
Text: as §1, §2
Preparation of Ointment -- Lanolin (1 g), water (3 g) DMSO (7 drops) and 10 mg of stearyl-VIP were manually homogenized in a mortar. An amount of paste, containing 30-50 μg peptide was applied onto the rat's penis and sexual behaviour, following the methodology previously described, was monitored.
(B) Using the same protocol as in (A) an ointment of VIP-oleyl was prepared and tested.

[5] abbreviates: individual castrated rats, testosterone 4 μg/100 g BW daily 15 days, injection 10 μg/animal, listed as VIP stearyl.

Values joined by “and” are separate entries in the source; they are usually repeats but may differ in a detail not shown here. Equal values may be shown once. No end group written: not given here. NH = not defined here; oleyl = oleyl moiety

Consider four molecules from patent US5147855A, “Conjugates of VIP and active fragments thereof with hydrophobic moieties and topical compositions for male impotence” (Yeda Research and Development Co. Ltd., priority 1988, dated 1992).

Regarding `CCCCCCCCCCCCCCCCCC(=O)O` [Stearic acid, reference compound], in assay [1], the “Ejaculations (E)” value was “E”; the “No. Ob.” value is 19 and 21; the “Int. Latency” value is 26 ± 1 and 18 ± 3 and 36 ± 2.
With `CC(COc1ccccc1)N(CCCl)Cc1ccccc1` (stereo not drawn) [phenoxybenzamine], in the assay on penile erection, the Erection result is reported as “Erection was also obtained”.
Consider Stearyl-VIP, for which, in assay [2] (setting [5]), the Intromission latency was 17 ± 3 s and 28 ± 7 s and 50 ± 17 s and 33 ± 6 s and 37 ± 6 s and 56 ± 8 s and 45 ± 7 s; the “Obs. = Number of intromissons per 15 minute test period” value is 7 and 4 and 12 and 20 and 14 and 6. In addition, in assay [2] (individual castrated rats, injection 10 μg/animal), the “Ejaculations (E)” value is recorded as “E”. Besides, the “Effect on sexual activity (words)” value in assay [2] (injection) is “potentiates sexual activity in a comparable manner to VIP”. For the same molecule, the “Obs. (number of intromissions)” value in assay [3] (individual castrated rats, testosterone 2 μg/100 g BW daily 16 days, topical 20 μg/20 μl mixed with 10 μl DMSO) is 21 and 14 and 10 and 3 and 11 and 25. In assay [3] (individual castrated rats, testosterone 2 μg/100 g BW daily 16 days, topical 20 μg/20 μl mixed with 10 μl DMSO, in s), the Intromission latency is 23 ± 4 and 29 ± 4 and 32 ± 8 and 16 ± 3 and 38 ± 10 and 18 ± 7 and 24 ± 4. In assay [3] (individual castrated rats, topical in DMSO), the “Ejaculations (E)” value was “E”. Moreover, the “Effect on sexual activity (words)” value in assay [3] (topical in DMSO) was “remarkable sexual arousal”. Besides, the “Effect on sexual activity (words)” value in assay [3] (topical in DMSO, listed as StearylVIP) is “rats B2 and A3 were sexually active only after”. In assay [1], the “Activity upon topical application” value is recorded as “the most active analog”; the “Ejaculations (E)” value is on record as “E”; the “No. Ob.” value is 6 and 28 and 20 and 49 and 31; the “Int. Latency” value is 66 ± 15 and 18 ± 3 and 18 ± 2 and 12 ± 3 and 26 ± 1. Moreover, in assay [1] (6 rats), the Change in latency entry is listed as “shortening of latency”, the “Change in number of ejaculations” value was “clear increase in the number of ejaculations” and the “Change in number of intromissions” value was “increase in number of intromissions”. Besides, in assay [4], the “Decrease (shortening) in intromission latency” value is “about 25%” and the Increase in ejaculations entry is listed as “two-fold”.
For “VIP-oleyl: VIP coupled to an oleyl moiety, tested as an ointment (HSDAVFTDNYTRLRKQMAVKKYLNSILN-{NH-oleyl}; ends and bridges not checked; UniProt P01282 125-152, looked up)”, in assay [4], the “Decrease (shortening) in intromission latency” value is on record as ~ 10% and the Increase in ejaculations entry is “increased, though much less than stearyl-VIP”.
